Reference: publication PMC10385636, “Inhibition Mechanism of Chitooligosaccharide-Polyphenol Conjugates toward Polyphenoloxidase from Shrimp Cephalothorax” (Molecules, 2023)

Tested on: T1, PPO (polyphenoloxidase from Pacific white shrimp cephalothorax)
T1 construct: gene proPO; crude native extract of cephalothorax powder; not purified; isoenzyme not identified (hemocyanin-derived activity not excluded); docking model 3WKY is not the assayed protein
Assay: dopachrome absorbance at […] nm, Lineweaver-Burk
Type: biochemical, Penaeus vannamei
Details: no inhibitor (0 mg/mL); crude extract; pH 6.0, 45 °C per activity assay; unit as in table footnote but substrate was dosed 2.5-25 mM, so unit is doubtful (possibly mM)

N[C@@H](Cc1ccc(O)c(O)c1)C(=O)O [L-DOPA]
Concentration (mg/mL) / 0: 7.0695 mg/mL
